The source of these data is patent US20130172424A1, “METHODS AND COMPOSITIONS FOR TREATING DIABETES” (GOLDEN BIOTECHNOLOGY CORPORATION, priority 2011, published 2013).

Each structure is given as a SMILES string. Several values for one entry are separate records, joined by “and”; a condition that tells them apart may be missing. Identical values can stand only once.

This experiment relates to diabetes induced by STZ in SD rats. Put plainly: Treatment of diabetes induced by STZ in rats. The settings on record: Group B (AopE+STZ+Compound 1), individual rats ID 1-4, before meals. Type of experiment: in vivo, Sprague-Dawley rat. The protocol:
The effects of exemplary cyclohexnone compound 1 in treating a subject suffering from diabetes were investigated in a Sprague-Dawley rat model over a four week period. The example describes the results of such experiments.
In vivo models. A rat model of diabetes was established by low-dose streptozotocin (STZ, 60 mg/kg) injection in SD rats. Rats of the same batch fed with normal chow (NRC) were used as a control (n=4).
Study group. Group A: diabetes without treatment group, n=6; Group B: AopE+STZ+Compound 1, n=4. […] Rats of Group B (treatment group) have the following blood sugar data before meals: […]

In the case of `COC1=C(OC)C(O)C(C/C=C(\C)CC/C=C(\C)CCC=C(C)C)C(C)C1=O` (centres unmarked) [Compound 1, 4-hydroxy-2,3-dimethoxy-6-methyl-5-(3,7,11-trimethyldodeca-2,6,10-trienyl)cyclohex-2-enone], the “2nd week blood sugar level” value (2nd week) is 421 mg/dL and 330 mg/dL and 261 mg/dL and 484 mg/dL. In addition, for the setting “4th week, untreated diabetic rats about 400-500 mg/dl, control about 100 mg/dl”, the “4th week Blood sugar level” value is 147 mg/dL and 149 mg/dL and 89 mg/dL and 388 mg/dL.
